In patent US7351747B2, “Skin treatment for relief of itch” (priority 2003, dated 2008):

System: skin itch
Assay: Topical application of chlorhydrate composition to individuals with skin itch
Assay type: in vivo, human
Description: Three individuals, each complaining of skin itch of undetermined origin, were treated as follows. A composition was prepared at a concentration of aluminum chlorhydrate of about 10 to about 20 weight percent in water and further including a small quantity of a quaternary ammonium compound as a preservative.
An adult individual has applied 30% wt. of aluminum chlorhydrate in a topical cream to an area of the forearm experiencing itch.
An adult complains of itch on their legs.
An adult complaining of itch on their forearms and legs applies an ointment composition including 25% wt. of aluminum zirconium chlorhydrate to the affected areas.
An aqueous composition comprising aluminum chlorhydrate at a concentration of about 20 weight percent is applied to a synthetic fabric wipe and sealed in a tear-open pouch. Subsequently, an adult experiencing itch on their forearms tears open the pouch and wipes the area of the skin with the moist wipe; the wipe and pouch are discarded after use.

[1] = adult female, legs, 30% wt. in a lotion
[2] = adult male, forearms, aqueous composition about 20 weight percent on synthetic fabric wipe
[3] = adult male, forearms and legs, ointment composition including 25% wt.

aluminum chlorhydrate
duration of relief of itch [1]: about 24 hours | time to relief of itch [1]: within a few minutes | relief of skin itch (adult individual, forearm, 30% wt. in a topical cream, no other active agent): relieves the skin itch | duration of relief from itching [2]: about a day | time to relief from itching [2]: within minutes | time to relief from itching (three adults (one male, two female), skin itch of undetermined origin, about 10 to about 20 weight percent in water with quaternary ammonium preservative, pump spray): within a few minutes | duration of relief from itching (three adults, skin itch of undetermined origin, about 10 to about 20 weight percent in water, pump spray): about one day | adverse side effects (three adults, about 10 to about 20 weight percent in water, pump spray to itching skin): No adverse side effects were reported

aluminum zirconium chlorhydrate
duration of relief of itch [3]: about 24 hours | time to relief of itch [3]: within minutes
